Results as given in patent publication US12398151B2, “Sumo inhibitor compounds and uses thereof” (SUVALENT THERAPEUTICS, INC., priority 2019, dated 2025).
Read-outs that look alike come from different tables or passages of the source.

Columns and labels:
SUMO E1 = target: T1, SUMO E1 (Homo sapiens, UniProt Q9UBT2); test: SUMO E1 inhibition: UBC9-SUMO1 conjugation by SDS gel electrophoresis; assay type: biochemical; details: read-out: SUMO E1 percent inhibition of adduct formation; for inhibition at 27 µM: 27 uM compound; for inhibition at 10 µM: 10 uM compound; for inhibition at 25 µM: 25 uM compound; for inhibition at 9 µM: 9 uM compound
T1 sequence (Q9UBT2 1-640): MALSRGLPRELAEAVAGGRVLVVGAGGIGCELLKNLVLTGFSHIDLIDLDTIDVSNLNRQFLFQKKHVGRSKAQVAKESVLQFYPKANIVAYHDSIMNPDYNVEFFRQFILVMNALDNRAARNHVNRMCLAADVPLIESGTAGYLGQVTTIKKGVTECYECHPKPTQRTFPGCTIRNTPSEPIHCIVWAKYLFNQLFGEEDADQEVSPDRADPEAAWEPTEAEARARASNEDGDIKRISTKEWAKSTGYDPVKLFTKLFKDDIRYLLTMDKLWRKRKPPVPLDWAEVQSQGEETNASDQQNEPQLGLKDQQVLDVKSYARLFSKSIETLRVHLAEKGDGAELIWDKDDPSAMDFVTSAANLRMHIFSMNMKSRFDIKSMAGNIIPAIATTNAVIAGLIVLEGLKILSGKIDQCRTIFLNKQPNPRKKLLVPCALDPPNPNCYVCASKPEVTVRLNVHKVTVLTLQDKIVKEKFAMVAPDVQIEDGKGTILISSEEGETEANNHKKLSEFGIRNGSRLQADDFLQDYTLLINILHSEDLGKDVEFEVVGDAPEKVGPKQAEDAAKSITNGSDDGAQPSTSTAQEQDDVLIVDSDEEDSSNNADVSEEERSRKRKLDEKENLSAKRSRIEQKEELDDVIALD
T1 sequence (Q9UBE0 1-346 partner): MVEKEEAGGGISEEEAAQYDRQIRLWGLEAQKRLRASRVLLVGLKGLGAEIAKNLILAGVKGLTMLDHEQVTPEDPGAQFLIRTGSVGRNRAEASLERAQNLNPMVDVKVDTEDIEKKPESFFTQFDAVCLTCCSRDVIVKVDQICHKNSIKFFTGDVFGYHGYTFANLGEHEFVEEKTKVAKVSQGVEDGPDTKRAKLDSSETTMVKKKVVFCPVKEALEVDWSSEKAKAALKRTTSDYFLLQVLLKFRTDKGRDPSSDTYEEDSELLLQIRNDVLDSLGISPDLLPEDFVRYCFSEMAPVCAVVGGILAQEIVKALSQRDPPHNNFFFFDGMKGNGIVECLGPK
Procedure, shortened: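 SUMO E1 was preincubated with compound for a set time, then UBC9, SUMO1 and ATP were added and incubated at 37 °C. After Laemmli quench, UBC9-SUMO1 adduct was resolved by SDS gel; percent inhibition from band intensity versus no-compound control, reported with compound concentration (μM) and preincubation time (min).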

Atg7 = target: T2, Atg7 (Homo sapiens, UniProt O95352); test: Atg7 activating enzyme (E1) inhibition; assay type: biochemical; details: 25 uM compound, 60 min preincubation; read-out: Atg7 percent inhibition of adduct formation
T2 sequence (O95352 1-703): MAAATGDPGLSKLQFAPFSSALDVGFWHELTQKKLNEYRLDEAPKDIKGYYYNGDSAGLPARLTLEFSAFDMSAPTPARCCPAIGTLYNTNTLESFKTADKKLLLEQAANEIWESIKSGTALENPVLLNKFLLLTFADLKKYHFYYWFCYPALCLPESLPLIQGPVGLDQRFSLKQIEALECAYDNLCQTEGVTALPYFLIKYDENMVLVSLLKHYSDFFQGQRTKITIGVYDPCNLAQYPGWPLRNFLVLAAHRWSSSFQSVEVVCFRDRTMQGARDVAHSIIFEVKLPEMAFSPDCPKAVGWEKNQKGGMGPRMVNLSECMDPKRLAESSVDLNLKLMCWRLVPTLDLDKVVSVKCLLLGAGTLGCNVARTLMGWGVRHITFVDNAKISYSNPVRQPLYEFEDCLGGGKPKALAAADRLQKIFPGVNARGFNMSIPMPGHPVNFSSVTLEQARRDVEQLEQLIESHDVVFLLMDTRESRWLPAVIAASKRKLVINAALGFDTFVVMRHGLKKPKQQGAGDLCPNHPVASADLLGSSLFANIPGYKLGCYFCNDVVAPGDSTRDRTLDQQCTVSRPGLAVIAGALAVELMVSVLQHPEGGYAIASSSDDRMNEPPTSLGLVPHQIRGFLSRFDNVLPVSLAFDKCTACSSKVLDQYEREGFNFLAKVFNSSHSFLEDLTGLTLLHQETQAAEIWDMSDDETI
Procedure, shortened: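 Compounds were assessed for their ability to inhibit the Atg7 activating enzyme (E1) following previously published methods and protocols. The E1 enzyme was preincubated with compound, and activity was expressed as the percent inhibition of adduct formation, reported together with the compound concentration in uM and the E1–compound preincubation time in minutes.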

C=CC(=O)N1Cc2sc(Cl)cc2[C@@H]([C@@H](CC)C(=O)O)C1 [Compound 134] was tested. Which inhibition at 27 µM (SUMO E1; 15 min preincubation) did it give?
Its inhibition at 27 µM is < 1%.

And the inhibition at 25 µM (Atg7)?
Its inhibition at 25 µM is < 1%.

C=CC(=O)N1Cc2cc(C)ccc2[C@@H](c2ccccc2C)C1 [Compound 85] was tested. Which inhibition at 10 µM (SUMO E1; 30 min preincubation) did it give?
Its inhibition at 10 µM is 100%.

What about the inhibition at 25 µM (Atg7) of the same compound?
Its inhibition at 25 µM is < 1%.

How did the inhibition at 27 µM (SUMO E1; 30 min preincubation) turn out when C=CC(=O)N1Cc2sc(Cl)cc2[C@@H](c2ccccc2C)[C@H]1C [Compound 112] was run?
The inhibition at 27 µM was 95%.

And the inhibition at 25 µM (Atg7)?
The inhibition at 25 µM was < 1%.

How did the inhibition at 10 µM (SUMO E1; 30 min preincubation) turn out when C=CC(=O)N1Cc2cccc(C)c2[C@@H](c2ccccc2C)C1 [Compound 86] was run?
The inhibition at 10 µM was < 1%.

And the inhibition at 25 µM (Atg7)?
Its inhibition at 25 µM is < 1%.

What does the source list for C=CC(=O)N1CCc2ccccc2[C@@H]1c1ccccc1 (stereo in doubt) [Compound 10]?
inhibition at 25 µM (SUMO E1; 60 min preincubation): < 1%; inhibition at 25 µM (Atg7): < 1%

C=CC(=O)N1Cc2ccccc2C[C@H]1c1ccccc1 [Compound 26] was tested. Which inhibition at 25 µM (SUMO E1; 60 min preincubation) did it give?
The inhibition at 25 µM was 10%.

And the inhibition at 25 µM (Atg7)?
Its inhibition at 25 µM is < 1%.

What does the source list for C=CC(=O)N1Cc2cc(OC)ccc2[C@@H](c2ccc(Cl)cc2)C1 [Compound 34]?
inhibition at 25 µM (SUMO E1; 60 min preincubation): < 1%; inhibition at 25 µM (Atg7): < 1%

Which results are given for C=CC(=O)N1Cc2sc(Cl)cc2[C@@H](c2ccccc2OC)C1 [Compound 109]?
inhibition at 27 µM (SUMO E1; 30 min preincubation): 30%; inhibition at 25 µM (Atg7): 80%

With C=CC(=O)N1Cc2sc(Cl)cc2[C@@H](c2ccccc2C2CC2)C1 [Compound 135] as the compound, how does the inhibition at 27 µM (SUMO E1; 30 min preincubation) read?
The inhibition at 27 µM was 95%.

What about the inhibition at 25 µM (Atg7) of the same compound?
Its inhibition at 25 µM is < 1%.

Which results are given for C=CC(=O)N1Cc2sc(Cl)cc2[C@@H](c2ccccc2CC2CCOCC2)C1 [Compound 138]?
inhibition at 9 µM (SUMO E1; 15 min preincubation): 50%; inhibition at 25 µM (Atg7): < 1%

C=CC(=O)N1Cc2ccc(Br)cc2[C@@H](c2ccccc2C)C1 [Compound 58] was tested. Which inhibition at 25 µM (SUMO E1; 60 min preincubation) did it give?
Its inhibition at 25 µM is 95%.

What about the inhibition at 25 µM (Atg7) of the same compound?
Its inhibition at 25 µM is < 1%.

With C=CC(=O)N1Cc2cc(OC)ccc2[C@@H](c2ccccc2)C1 [Compound 42] as the compound, how does the inhibition at 25 µM (SUMO E1; 60 min preincubation) read?
Its inhibition at 25 µM is < 1%.

And the inhibition at 25 µM (Atg7)?
The inhibition at 25 µM was < 1%.

What does the source list for C=CC(=O)N1Cc2cc(Cl)ccc2[C@@H](c2ccccc2C)C1 [Compound 75]?
inhibition at 10 µM (SUMO E1; 60 min preincubation): 100%; inhibition at 25 µM (Atg7): < 1%

With C=CC(=O)N1Cc2cc(Cl)ccc2[C@@H](C2CCCCC2)C1 [Compound 102] as the compound, how does the inhibition at 9 µM (SUMO E1; 30 min preincubation) read?
The inhibition at 9 µM was 40%.

And the inhibition at 25 µM (Atg7)?
Its inhibition at 25 µM is < 1%.

C=CC(=O)N1Cc2sccc2[C@@H](C2CCCCC2)C1 [Compound 123] was tested. Which inhibition at 9 µM (SUMO E1; 30 min preincubation) did it give?
The inhibition at 9 µM was 40%.

What about the inhibition at 25 µM (Atg7) of the same compound?
Its inhibition at 25 µM is < 1%.

For Cc1cc2c(s1)CN(C(=O)/C=C/c1ccccc1)C[C@@H]2c1ccccc1 [Compound 91], which inhibition at 9 µM (SUMO E1; 30 min preincubation) is on record?
Its inhibition at 9 µM is < 1%.

And the inhibition at 25 µM (Atg7)?
Its inhibition at 25 µM is < 1%.

With C=CC(=O)N1Cc2ccc(NS(=O)(=O)c3ccccc3)cc2C1 [Compound 17] as the compound, how does the inhibition at 25 µM (SUMO E1; 60 min preincubation) read?
Its inhibition at 25 µM is 20%.

What about the inhibition at 25 µM (Atg7) of the same compound?
The inhibition at 25 µM was < 1%.

With C=CC(=O)N1Cc2ccc(OC)cc2[C@@H](c2ccccc2)C1 [Compound 60] as the compound, how does the inhibition at 25 µM (SUMO E1; 60 min preincubation) read?
Its inhibition at 25 µM is 40%.

What about the inhibition at 25 µM (Atg7) of the same compound?
The inhibition at 25 µM was < 1%.

What does the source list for Cc1ccccc1[C@H]1CN(C(=O)/C=C/c2ccccn2)Cc2sc(Cl)cc21 [Compound 119]?
inhibition at 27 µM (SUMO E1; 30 min preincubation): < 1%; inhibition at 25 µM (Atg7): < 1%

Which results are given for C=CC(=O)N1Cc2ccc(Br)cc2[C@@H](c2ccccc2Br)C1 [Compound 55]?
inhibition at 25 µM (SUMO E1; 60 min preincubation): 50%; inhibition at 25 µM (Atg7): < 1%

Which inhibition at 9 µM (SUMO E1; 30 min preincubation) does the source give for C=CC(=O)N1Cc2cc(Br)cnc2[C@@H](c2ccccc2)C1 [Compound 88] here?
The inhibition at 9 µM was < 1%.

And the inhibition at 25 µM (Atg7)?
The inhibition at 25 µM was < 1%.

With C=CC(=O)N1Cc2sc(CCC)cc2[C@@H](c2ccccc2C)C1 [Compound 110] as the compound, how does the inhibition at 27 µM (SUMO E1; 30 min preincubation) read?
The inhibition at 27 µM was 30%.

What about the inhibition at 25 µM (Atg7) of the same compound?
The inhibition at 25 µM was 80%.

What does the source list for C=CC(=O)N1Cc2ccc(Cl)c(Cl)c2[C@@H](c2ccccc2)C1 [Compound 101]?
inhibition at 3 µM (SUMO E1; 3 uM compound, 15 min preincubation): 30%; inhibition at 25 µM (Atg7): < 1%

Which results are given for C=CC(=O)N1CCc2cc(CC3CCOCC3)ccc2C1 [Compound 18]?
inhibition at 25 µM (SUMO E1; 60 min preincubation): < 1%; inhibition at 25 µM (Atg7): 95%

What does the source list for C=CC(=O)N1Cc2ccc(C(C)C)cc2[C@@H](c2ccccc2)C1 [Compound 39]?
inhibition at 25 µM (SUMO E1; 60 min preincubation): < 1%; inhibition at 25 µM (Atg7): < 1%
